Molecules are shown by their SMILES.

Broadly, the EC50 is the midpoint of the concentration-response curve.

In the experiment the target is T1, human recombinant mGluR5 (Homo sapiens, UniProt P41594).
T1 construct: expressed in transfected cells; host or cells: HEK 293
Put plainly: positive modulation of mGluR5, calcium based FLIPR assay. The note with it: HEK 293 cell line expressing human recombinant mGluR5; EC50 of the modulation from peak Ca fluorescence signal after glutamate at approx. 5% basal stimulation. Summed up:
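HEK 293 cells expressing human recombinant mGluR5, Calcium-4 dye-loaded in Ringer solution pH 7.4. Compound (1% DMSO final) preincubated 5 min, then glutamate at ~5% of maximal effect added; peak Ca2+ fluorescence gives EC50 by nonlinear regression, normalized to DMSO (100%) and 10 μM CDPPB (200%) controls.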

T1 sequence (P41594 21-1212): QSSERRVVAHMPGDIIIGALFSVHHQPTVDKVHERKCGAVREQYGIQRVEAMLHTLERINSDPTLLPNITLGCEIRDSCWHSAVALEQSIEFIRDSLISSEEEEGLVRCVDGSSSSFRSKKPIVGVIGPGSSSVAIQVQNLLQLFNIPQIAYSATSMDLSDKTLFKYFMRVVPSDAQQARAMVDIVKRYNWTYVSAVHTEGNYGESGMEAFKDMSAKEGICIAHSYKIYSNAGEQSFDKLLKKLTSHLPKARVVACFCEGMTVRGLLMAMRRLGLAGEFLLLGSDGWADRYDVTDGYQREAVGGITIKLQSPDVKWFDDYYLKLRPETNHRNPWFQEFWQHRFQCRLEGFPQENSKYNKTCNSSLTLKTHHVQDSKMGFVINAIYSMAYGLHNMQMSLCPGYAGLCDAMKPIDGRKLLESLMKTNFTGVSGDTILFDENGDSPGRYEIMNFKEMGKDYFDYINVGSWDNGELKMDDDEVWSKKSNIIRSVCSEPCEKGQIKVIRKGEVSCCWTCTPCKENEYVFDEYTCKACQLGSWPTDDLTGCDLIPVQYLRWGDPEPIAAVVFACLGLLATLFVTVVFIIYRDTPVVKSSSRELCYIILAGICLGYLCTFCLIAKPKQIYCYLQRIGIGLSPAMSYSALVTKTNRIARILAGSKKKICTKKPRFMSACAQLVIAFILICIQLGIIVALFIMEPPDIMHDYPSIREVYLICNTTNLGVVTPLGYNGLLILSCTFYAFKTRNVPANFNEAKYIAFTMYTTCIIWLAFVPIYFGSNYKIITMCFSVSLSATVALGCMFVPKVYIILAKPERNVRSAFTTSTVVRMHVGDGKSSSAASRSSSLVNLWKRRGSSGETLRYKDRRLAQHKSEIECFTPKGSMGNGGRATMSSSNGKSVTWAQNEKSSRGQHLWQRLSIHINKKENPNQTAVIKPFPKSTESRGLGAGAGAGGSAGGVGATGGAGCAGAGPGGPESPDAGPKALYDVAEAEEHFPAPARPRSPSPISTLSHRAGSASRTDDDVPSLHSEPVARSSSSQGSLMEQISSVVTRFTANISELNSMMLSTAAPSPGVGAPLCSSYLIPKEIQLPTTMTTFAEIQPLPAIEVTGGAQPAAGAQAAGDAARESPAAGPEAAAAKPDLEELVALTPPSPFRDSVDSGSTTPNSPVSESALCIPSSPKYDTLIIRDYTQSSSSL

As to `CCc1nc2c(o1)CN(C(=O)Cn1nc(-c3ccc(F)c(C)c3)cc1-c1ccccc1)C2` [Example 7.02.255], the EC50 is 7 nM.

Regarding `CCc1nc2c(o1)CN(C(=O)Cn1nc(-c3ccc(F)c(C)c3)cc1CC)C2` [Example 7.02.256], the EC50 turned out to be 11 nM.

For the compound `Cc1nc2c(o1)CN(C(=O)Cn1nc(-c3ccc(C(F)F)cc3)cc1-c1ccccc1)C2` [Example 7.02.257], the EC50 is 16 nM.

With `Cc1nnc(N2CCN(C(=O)Cn3nc(-c4ccc(C(F)F)cc4)cc3-c3ccccc3)CC2)o1` [Example 7.02.258], the EC50 is 31 nM.

Consider `Cc1nc2c(s1)CCN(C(=O)Cn1nc(-c3ccc(C(F)F)cc3)cc1-c1ccccc1)CC2` [Example 7.02.259], for which the EC50 is 10 nM.

On to `Cc1nc2c(s1)CN(C(=O)Cn1nc(-c3ccc(C(F)F)cc3)cc1-c1ccccc1)C2` [Example 7.02.260], for which the EC50 turned out to be 26 nM.

These data come from patent US8741892B2, “Compounds” (Boehringer Ingelheim International GmbH, priority 2011, dated 2014).
